Source: the NIST ThermoML archive (doi:10.1021/acs.jced.8b00229)

Conditions: Liquid, Vibrating tube method

FCC(F)(F)F [1,1,1,2-tetrafluoroethane]
Conditions | mass density [kg/m3]
283.55 K, 40000 kPa | 1376.3
283.55 K, 60000 kPa | 1413.1
283.55 K, 80000 kPa | 1443.2
283.56 K, 20000 kPa | 1328.7
283.57 K, 5000 kPa | 1279.4
283.57 K, 10000 kPa | 1297.9
303.39 K, 1000 kPa | 1188.5
303.39 K, 5000 kPa | 1212.5
303.39 K, 10000 kPa | 1237
303.39 K, 20000 kPa | 1275.9
303.39 K, 40000 kPa | 1332.1
303.39 K, 80000 kPa | 1407.4
303.4 K, 60000 kPa | 1373.9
322.89 K, 3000 kPa | 1120.9
322.91 K, 5000 kPa | 1137.8
322.91 K, 10000 kPa | 1172
322.93 K, 20000 kPa | 1221.5
322.93 K, 40000 kPa | 1288.4
322.93 K, 60000 kPa | 1335.8
322.94 K, 80000 kPa | 1372.8
342.75 K, 3000 kPa | 1017.4
342.75 K, 5000 kPa | 1047.5
342.76 K, 10000 kPa | 1098.8
342.77 K, 20000 kPa | 1164.1
342.77 K, 40000 kPa | 1243.6
342.78 K, 60000 kPa | 1297.3
342.78 K, 80000 kPa | 1338.2
362.57 K, 5000 kPa | 924.9
362.57 K, 10000 kPa | 1015.4
362.58 K, 20000 kPa | 1103.4
362.59 K, 40000 kPa | 1198.4
362.59 K, 60000 kPa | 1258.8
362.59 K, 80000 kPa | 1303.8
